Source: article PMC7023064, “Design, Synthesis, and Evaluation of Novel 2-Methoxyestradiol Derivatives as Apoptotic Inducers through an Intrinsic Apoptosis Pathway” (Biomolecules, 2020)
Like-named read-outs stand apart in the source and are kept apart here.

How the values were obtained:
[1] = tested on: human breast cancer MDA-MB-231 cell lines; assay: MTT cytotoxicity assay, MDA-MB-231; assay type: cell-based; conditions: mean ± SD of three experiments
Method: (§1) Human breast adenocarcinoma MCF-7 cell lines, human breast cancer MDA-MB-231 cell lines, and the normal human liver L-O2 cell lines were provided by Nanjing KeyGen Biotech Co. Ltd. (Nanjing, China). MCF-7 cells were cultured in a base medium (90% RPMI-1640 and 10% FBS) at 37 °C, 5% CO2 and a saturated humidity atmosphere. MDA-MB-231 cells were cultured in a base medium (90% […] and 10% FBS) at 37 °C, 5% CO2 and a saturated humidity atmosphere. L-O2 cells were cultured in a base medium (90% DMEM and 10% FBS) at 37 °C, 5% CO2 and a saturated humidity atmosphere.
(§2) The cytotoxicity of the tested compounds was determined using the 3-(4,5-dimethyl-2-thiazolyl)-2,5-diphenyl-2-H-tetrazolium bromide (MTT) assay. Cells were seeded in 96-well plates and incubated in a 5% CO2 incubator at 37 °C. When the cells adhered, compounds at different concentrations were added to every well. After incubation for another 72 h, MTT solution (5 mg/mL) was added into each well and cells were incubated for an additional 4 h. The viable cells were stained with MTT and scanned with an electrophotometer at 570 nm. Each concentration treatment was done in triplicate wells. The half maximal inhibitory concentration (IC50) values were estimated by fitting the inhibition data to a dose-dependent curve using a logistic derivative equation.

[2] = tested on: normal human liver L-O2 cell lines; assay: MTT cytotoxicity assay, L-O2; assay type: cell-based; conditions: mean ± SD of three experiments, No = No inhibition detected
Method: as §1, §2

[3] = tested on: human breast adenocarcinoma MCF-7 cell lines; assay: MTT cytotoxicity assay, MCF-7; assay type: cell-based
Method: as §1, §2

[4] = tested on: MCF-7 and MDA-MB-231 cell lines; assay: MTT assay, summary over tested tumor cells; assay type: cell-based, human; conditions: for IC50: Homo sapiens, MCF-7 and MDA-MB-231, read-out: IC50, anti-proliferative activity against tested tumor cells
Method: as §1, §2

[5] = MTT, 72 h, mean ± SD of three experiments, read-out: IC50 MCF-7
[6] = Table 2, mean ± SD of three experiments, read-out: IC50 for MCF-7
[7] = Homo sapiens, MCF7, MTT, 72 h, mean ± SD of three experiments, read-out: IC50 MCF-7
[8] = Homo sapiens, MCF7, Table 2, mean ± SD of three experiments, read-out: IC50 for MCF-7
[9] = Homo sapiens, MCF7, pIC50 = −log(IC50), read-out: pIC50 for MCF-7 (converted)

Compound | IC50 ([1]; 72 h) [µM] | IC50 ([2]; 72 h) [µM] | IC50 [3, 5] [µM] | IC50 [3, 6] [µM] | pIC50 for MCF-7 ([3]; pIC50 = −log(IC50)) | IC50 ([1]; Homo sapiens, MDA-MB-231, 72 h) [µM] | IC50 ([2]; Homo sapiens, L02, 72 h) [µM] | IC50 [3, 7] [µM] | IC50 [3, 8] [µM] | IC50 [3, 9] [µM] | melting point [°C] | IC50 [4] [µM] | IC50 L-O2 ([2]; 72 h) | selectivity towards cancerous cell lines vs healthy cell line ([4]; MCF-7 and MDA-MB-231 vs L-O2)
3-[6-(5-Methyl-Uracil-3-yl)-Hexyloxy]-2-Methoxy-Estra-1,3,5(10)-Triene-17β-ol [Compound 21a] | 7.34 ± 0.56 | 28.2 ± 0.57 | 9.97 ± 0.39 | 9.97 ± 0.39 | 5.00 |  |  |  |  |  |  |  |  | 
3-[6-(Uracil-3-yl)-Hexyloxy]-2-Methoxy-Estra-1,3,5(10)-Triene-17β-ol [Compound 20a] | 14 ± 1.69 | 38.5 ± 1.87 | 17.9 ± 0.22 | 17.9 ± 0.22 | 4.75 |  |  |  |  |  |  |  |  | 
3-[8-(5-Methyl-Uracil-3-yl)-Octyloxy]-2-Methoxy-Estra-1,3,5(10)-Triene-17β-ol [Compound 23a] | 12.7 ± 0.22 | 25.5 ± 1.86 | 8.75 ± 0.22 | 8.75 ± 0.22 | 5.06 |  |  |  |  |  |  |  |  | 
3-[8-(Uracil-3-yl)-Octyloxy]-2-Methoxy-Estra-1,3,5(10)-Triene-17β-ol [Compound 22a] | 9.58 ± 0.98 | 25.9 ± 1.82 | 10.3 ± 0.37 | 10.3 ± 0.37 | 4.99 |  |  |  |  |  |  |  |  | 
17 β-[6-(5-Methyl-Uracil-3-yl)-Hexyloxy]-2-Methoxy-Estra-1,3,5(10)-Triene-3-ol [Compound 13a] | 13.3 ± 0.16 | 51.4 ± 1.47 | 16.6 ± 1.26 | 16.6 ± 1.26 | 4.78 |  |  |  |  |  |  |  |  | 
17 β-[8-(5-Methyl-Uracil-3-yl)-Octyloxy]-2-Methoxy-Estra-1,3,5(10)-Triene-3-ol [Compound 15a] | 19.3 ± 1.54 | 52.6 ± 1.82 | 12.1 ± 0.45 | 12.1 ± 0.45 | 4.92 |  |  |  |  |  |  |  |  | 
17 β-[8-(Uracil-3-yl)-Octyloxy]-2-Methoxy-Estra-1,3,5(10)-Triene-3-ol [Compound 14a] | 8 ± 0.41 | 17.5 ± 0.69 | 9.22 ± 0.21 | 9.22 ± 0.21 | 5.04 |  |  |  |  |  |  |  |  | 
COc1cc2c(cc1O)CC[C@@H]1[C@@H]2CC[C@]2(C)[C@@H](O)CC[C@@H]12 [Compound 1, 2-Methoxyestradiol] |  |  |  |  |  | 1.86 ± 0.02 | 4.7 ± 0.45 | 1.51 ± 0.04 | 1.51 ± 0.04 | 1.51 |  |  |  | 
O=c1[nH]cc(F)c(=O)[nH]1 [Compound 5-FU, reference compound] | 61.9 ± 2.23 | > 100 | 8.87 ± 0.59 |  |  |  |  |  |  |  |  |  |  | 
COc1cc2c(cc1O)CC[C@@H]1[C@@H]2CC[C@]2(C)[C@@H](OCCCCCCn3c(=O)ccn([C@@H]4O[C@H](CO)[C@@H](O)[C@H]4O)c3=O)CC[C@@H]12 [Compound 10, 17 β-[6-(1-β-D-Ribofuranosyluracil-3-yl)-Hexyloxy]-2-Methoxy-Estra-1,3,5(10)-Triene-3-ol] |  |  |  |  |  | 13.2 ± 1.09 | 35.2 ± 0.42 | 16.7 ± 0.3 | 16.7 ± 0.3 | 16.6 | 79 to 81 | 3.89 to 16.7 |  | 
COc1cc2c(cc1O)CC[C@@H]1[C@@H]2CC[C@]2(C)[C@@H](OCCCCCCn3ccc(=O)n(CCCCCCO[C@H]4CC[C@H]5[C@@H]6CCc7cc(O)c(OC)cc7[C@H]6CC[C@]45C)c3=O)CC[C@@H]12 [Compound 12b, 1,3-bis-{6-[2-Methoxy-3-Hydroxy-Estra-1,3,5(10)-Triene-17β-yl-oxy]-Hexyl}-Uracil] |  |  |  |  |  | > 100 |  | > 100 | > 100 | > 100 | 71 to 73 |  | No ^b | 
COc1cc2c(cc1O)CC[C@@H]1[C@@H]2CC[C@]2(C)[C@@H](OCCCCCCn3cc(C)c(=O)n(CCCCCCO[C@H]4CC[C@H]5[C@@H]6CCc7cc(O)c(OC)cc7[C@H]6CC[C@]45C)c3=O)CC[C@@H]12 [Compound 13b, 1,3-Bis-{6-[2-Methoxy-3-Hydroxy-Estra-1,3,5(10)-Triene-17β-yl-oxy]-Hexyl}-5-Methyl-Uracil] |  |  |  |  |  | > 100 |  | > 100 | > 100 | > 100 | 84 to 86 |  | No | 
COc1cc2c(cc1O)CC[C@@H]1[C@@H]2CC[C@]2(C)[C@@H](OCCCCCCCCn3ccc(=O)n(CCCCCCCCO[C@H]4CC[C@H]5[C@@H]6CCc7cc(O)c(OC)cc7[C@H]6CC[C@]45C)c3=O)CC[C@@H]12 [Compound 14b, 1,3-Bis-{8-[2-Methoxy-3-Hydroxy-Estra-1,3,5(10)-Triene-17β-yl-Oxy]-Octyl}-Uracil] |  |  |  |  |  | > 100 |  | > 100 | > 100 | > 100 | 73 to 75 |  | No | 
COc1cc2c(cc1O)CC[C@@H]1[C@@H]2CC[C@]2(C)[C@@H](OCCCCCCCCn3cc(C)c(=O)n(CCCCCCCCO[C@H]4CC[C@H]5[C@@H]6CCc7cc(O)c(OC)cc7[C@H]6CC[C@]45C)c3=O)CC[C@@H]12 [Compound 15b, 1,3-bis-{8-[2-Methoxy-3-Hydroxy-Estra-1,3,5(10)-Triene-17β-yl-oxy]-Octyl}-5-Methyl-Uracil] |  |  |  |  |  | > 100 |  | > 100 | > 100 | > 100 | 73 to 75 |  | No | 
COc1cc2c(cc1OCCCCCCn1c(=O)ccn([C@@H]3O[C@H](CO)[C@@H](O)[C@H]3O)c1=O)CC[C@@H]1[C@@H]2CC[C@]2(C)[C@@H](O)CC[C@@H]12 [Compound 18, 3-[6-(1-β-D-Ribofuranosyluracil-3-yl)-Hexyloxy]-2-Methoxy-Estra-1,3,5(10)-Triene-17β-ol] |  |  |  |  |  | 3.89 ± 0.36 | 21.3 ± 0.66 | 6.21 ± 0.37 | 6.21 ± 0.37 | 6.17 | 99 to 100 | 3.89 to 16.7 |  | 
COc1cc2c(cc1OCCCCCCCCn1c(=O)ccn([C@@H]3O[C@H](CO)[C@@H](O)[C@H]3O)c1=O)CC[C@@H]1[C@@H]2CC[C@]2(C)[C@@H](O)CC[C@@H]12 [Compound 19, 3-[8-(1-β-D-Ribofuranosyluracil-3-yl)-Octyloxy]-2-Methoxy-Estra-1,3,5(10)-Triene-17β-ol] |  |  |  |  |  | 10.44 ± 0.07 | 32.8 ± 0.65 | 7.87 ± 0.42 | 7.87 ± 0.42 | 7.94 | 93 to 95 | 3.89 to 16.7 |  | 
COc1cc2c(cc1OCCCCCCn1ccc(=O)n(CCCCCCOc3cc4c(cc3OC)[C@H]3CC[C@]5(C)[C@@H](O)CC[C@H]5[C@@H]3CC4)c1=O)CC[C@@H]1[C@@H]2CC[C@]2(C)[C@@H](O)CC[C@@H]12 [Compound 20b, 1,3-Bis-{6-[2-Methoxy-17β-Hydroxy-Estra-1,3,5(10)-Triene-3-yl-Oxy]-Hexyl}-Uracil] |  |  |  |  |  | > 100 |  | > 100 | > 100 | > 100 | 93 to 94 |  | No | 
COc1cc2c(cc1OCCCCCCn1cc(C)c(=O)n(CCCCCCOc3cc4c(cc3OC)[C@H]3CC[C@]5(C)[C@@H](O)CC[C@H]5[C@@H]3CC4)c1=O)CC[C@@H]1[C@@H]2CC[C@]2(C)[C@@H](O)CC[C@@H]12 [Compound 21b, 1,3-bis-{6-[2-Methoxy-17β-Hydroxy-Estra-1,3,5(10)-Triene-3-yl-oxy]-Hexyl}-5-Methyl-Uracil] |  |  |  |  |  | 23.8 ± 1.45 | > 100 | 28.4 ± 1.76 | 28.4 ± 1.76 | 28.2 | 79 to 81 | ~25 |  | about 4 fold
COc1cc2c(cc1OCCCCCCCCn1ccc(=O)n(CCCCCCCCOc3cc4c(cc3OC)[C@H]3CC[C@]5(C)[C@@H](O)CC[C@H]5[C@@H]3CC4)c1=O)CC[C@@H]1[C@@H]2CC[C@]2(C)[C@@H](O)CC[C@@H]12 [Compound 22b, 1,3-Bis-{8-[2-Methoxy-17β-Hydroxy-Estra-1,3,5(10)-Triene-3-yl-Oxy]-Octyl}-Uracil] |  |  |  |  |  | > 100 |  | > 100 | > 100 | > 100 | 74 to 76 |  | No | 
COc1cc2c(cc1OCCCCCCCCn1cc(C)c(=O)n(CCCCCCCCOc3cc4c(cc3OC)[C@H]3CC[C@]5(C)[C@@H](O)CC[C@H]5[C@@H]3CC4)c1=O)CC[C@@H]1[C@@H]2CC[C@]2(C)[C@@H](O)CC[C@@H]12 [Compound 23b, 1,3-bis-{8-[2-Methoxy-17β-Hydroxy-Estra-1,3,5(10)-Triene-3-yl-Oxy]-octyl}-5-Methyl-Uracil] |  |  |  |  |  | > 100 |  | > 100 | > 100 | > 100 | 75 to 76 |  | No | 
